Experiment: Effect of solvent on the stability of the solution (purity at various pH values and temperature)
Assay type: physicochemical
Settings: 7% solution

CCN(CC)CCOC(=O)c1ccccc1OC(C)=O.Cl
Purity(%) at day 0 (solvent 15% ethanol, pH 1.0, day 0): 99.1 ± 0.2%
Purity(%) at day 14 (5° C.) (solvent 15% ethanol, pH 1.0, day 14, 5° C.): 92.1 ± 0.3%
Purity(%) at day 14 (25° C.) (solvent 15% ethanol, pH 1.0, day 14, 25° C.): 62.7 ± 0.3%
Purity(%) at day 14 (40° C.) (solvent 15% ethanol, pH 1.0, day 14, 40° C.): 0%
Purity (%) at day 14 (60° C.) (solvent 15% ethanol, pH 1.0, day 14, 60° C.): 0%
Purity(%) at day 0 (solvent 15% ethanol, pH 2.0, day 0): 99.4 ± 0.2%
Purity(%) at day 14 (5° C.) (solvent 15% ethanol, pH 2.0, day 14, 5° C.): 96.5 ± 0.2%
Purity(%) at day 14 (25° C.) (solvent 15% ethanol, pH 2.0, day 14, 25° C.): 83.8 ± 0.3%
Purity(%) at day 14 (40° C.) (solvent 15% ethanol, pH 2.0, day 14, 40° C.): 0%
Purity (%) at day 14 (60° C.) (solvent 15% ethanol, pH 2.0, day 14, 60° C.): 0%
Purity(%) at day 0 (solvent 15% ethanol, pH 3.0, day 0): 99.5 ± 0.1%
Purity(%) at day 14 (25° C.) (solvent 15% ethanol, pH 3.0, day 14, 25° C.): 88.8 ± 0.2%
Purity(%) at day 14 (40° C.) (solvent 15% ethanol, pH 3.0, day 14, 40° C.): 2.9 ± 0.3%
Purity (%) at day 14 (60° C.) (solvent 15% ethanol, pH 3.0, day 14, 60° C.): 0%
Purity(%) at day 0 (solvent 15% ethanol, pH 3.7, day 0): 99.6 ± 0.1%
Purity(%) at day 14 (25° C.) (solvent 15% ethanol, pH 3.7, day 14, 25° C.): 96.2 ± 0.3%
Purity(%) at day 14 (40° C.) (solvent 15% ethanol, pH 3.7, day 14, 40° C.): 15.2 ± 0.3%
Purity (%) at day 14 (60° C.) (solvent 15% ethanol, pH 3.7, day 14, 60° C.): 0%
Purity(%) at day 0 (solvent 15% ethanol, pH 4.0, day 0): 99.7 ± 0.2%
Purity(%) at day 14 (25° C.) (solvent 15% ethanol, pH 4.0, day 14, 25° C.): 96.7 ± 0.2%
Purity(%) at day 14 (40° C.) (solvent 15% ethanol, pH 4.0, day 14, 40° C.): 15.7 ± 0.3%
Purity (%) at day 14 (60° C.) (solvent 15% ethanol, pH 4.0, day 14, 60° C.): 0%
Purity(%) at day 0 (solvent 15% ethanol, pH 4.3, day 0): 99.7 ± 0.1%
Purity(%) at day 14 (25° C.) (solvent 15% ethanol, pH 4.3, day 14, 25° C.): 96.7 ± 0.1%
Purity(%) at day 14 (40° C.) (solvent 15% ethanol, pH 4.3, day 14, 40° C.): 13.6 ± 0.3%
Purity (%) at day 14 (60° C.) (solvent 15% ethanol, pH 4.3, day 14, 60° C.): 0%
Purity(%) at day 0 (solvent 15% ethanol, pH 4.6, day 0): 99.6 ± 0.2%
Purity(%) at day 14 (25° C.) (solvent 15% ethanol, pH 4.6, day 14, 25° C.): 96.5 ± 0.2%
Purity(%) at day 14 (40° C.) (solvent 15% ethanol, pH 4.6, day 14, 40° C.): 4.1 ± 0.3%
Purity (%) at day 14 (60° C.) (solvent 15% ethanol, pH 4.6, day 14, 60° C.): 0%
Purity(%) at day 0 (solvent 15% ethanol, pH 5.0, day 0): 99.5 ± 0.2%
Purity(%) at day 14 (5° C.) (solvent 15% ethanol, pH 5.0, day 14, 5° C.): 97.4 ± 0.2%
Purity(%) at day 14 (25° C.) (solvent 15% ethanol, pH 5.0, day 14, 25° C.): 92.9 ± 0.2%
Purity(%) at day 14 (40° C.) (solvent 15% ethanol, pH 5.0, day 14, 40° C.): 1.3 ± 0.3%
Purity (%) at day 14 (60° C.) (solvent 15% ethanol, pH 5.0, day 14, 60° C.): 0%
Purity(%) at day 0 (solvent 15% ethanol, pH 6.0, day 0): 99.4 ± 0.2%
Purity(%) at day 14 (5° C.) (solvent 15% ethanol, pH 6.0, day 14, 5° C.): 92.3 ± 0.3%
Purity(%) at day 14 (25° C.) (solvent 15% ethanol, pH 6.0, day 14, 25° C.): 84.9 ± 0.3%
Purity(%) at day 14 (40° C.) (solvent 15% ethanol, pH 6.0, day 14, 40° C.): 0%
Purity (%) at day 14 (60° C.) (solvent 15% ethanol, pH 6.0, day 14, 60° C.): 0%
Purity(%) at day 0 (solvent 15% ethanol, pH 7.0, day 0): 99.2 ± 0.1%
Purity(%) at day 14 (5° C.) (solvent 15% ethanol, pH 7.0, day 14, 5° C.): 87.9 ± 0.3%
Purity(%) at day 14 (25° C.) (solvent 15% ethanol, pH 7.0, day 14, 25° C.): 60.2 ± 0.3%
Purity(%) at day 14 (40° C.) (solvent 15% ethanol, pH 7.0, day 14, 40° C.): 0%
Purity (%) at day 14 (60° C.) (solvent 15% ethanol, pH 7.0, day 14, 60° C.): 0%
Purity(%) at day 0 (solvent 15% ethanol, pH 8.0, day 0): 99.1 ± 0.2%
Purity(%) at day 14 (5° C.) (solvent 15% ethanol, pH 8.0, day 14, 5° C.): 58.7 ± 0.4%
Purity(%) at day 14 (25° C.) (solvent 15% ethanol, pH 8.0, day 14, 25° C.): 22.7 ± 0.3%
Purity(%) at day 14 (40° C.) (solvent 15% ethanol, pH 8.0, day 14, 40° C.): 0%
Purity (%) at day 14 (60° C.) (solvent 15% ethanol, pH 8.0, day 14, 60° C.): 0%
Purity(%) at day 0 (solvent 25% ethanol, pH 1.0, day 0): 99.1 ± 0.3%
Purity(%) at day 14 (5° C.) (solvent 25% ethanol, pH 1.0, day 14, 5° C.): 92.3 ± 0.3%
Purity(%) at day 14 (25° C.) (solvent 25% ethanol, pH 1.0, day 14, 25° C.): 63.5 ± 0.3%
Purity(%) at day 14 (40° C.) (solvent 25% ethanol, pH 1.0, day 14, 40° C.): 0%
Purity (%) at day 14 (60° C.) (solvent 25% ethanol, pH 1.0, day 14, 60° C.): 0%
Purity(%) at day 0 (solvent 25% ethanol, pH 2.0, day 0): 99.4 ± 0.3%
Purity(%) at day 14 (5° C.) (solvent 25% ethanol, pH 2.0, day 14, 5° C.): 96.9 ± 0.3%
Purity(%) at day 14 (25° C.) (solvent 25% ethanol, pH 2.0, day 14, 25° C.): 84.2 ± 0.3%
Purity(%) at day 14 (40° C.) (solvent 25% ethanol, pH 2.0, day 14, 40° C.): 0%
Purity (%) at day 14 (60° C.) (solvent 25% ethanol, pH 2.0, day 14, 60° C.): 0%
Purity(%) at day 0 (solvent 25% ethanol, pH 3.0, day 0): 99.5 ± 0.2%
Purity(%) at day 14 (25° C.) (solvent 25% ethanol, pH 3.0, day 14, 25° C.): 88.9 ± 0.2%
Purity(%) at day 14 (40° C.) (solvent 25% ethanol, pH 3.0, day 14, 40° C.): 2.9 ± 0.2%
Purity (%) at day 14 (60° C.) (solvent 25% ethanol, pH 3.0, day 14, 60° C.): 0%
Purity(%) at day 0 (solvent 25% ethanol, pH 3.7, day 0): 99.6 ± 0.1%
Purity(%) at day 14 (5° C.) (solvent 25% ethanol, pH 3.7, day 14, 5° C.): 99.1 ± 0.2%
Purity(%) at day 14 (25° C.) (solvent 25% ethanol, pH 3.7, day 14, 25° C.): 96.3 ± 0.2%
Purity(%) at day 14 (40° C.) (solvent 25% ethanol, pH 3.7, day 14, 40° C.): 15.1 ± 0.3%
Purity (%) at day 14 (60° C.) (solvent 25% ethanol, pH 3.7, day 14, 60° C.): 0%
Purity(%) at day 0 (solvent 25% ethanol, pH 4.0, day 0): 99.8 ± 0.1%
Purity(%) at day 14 (5° C.) (solvent 25% ethanol, pH 4.0, day 14, 5° C.): 99.1 ± 0.1%
Purity(%) at day 14 (25° C.) (solvent 25% ethanol, pH 4.0, day 14, 25° C.): 96.9 ± 0.1%
Purity(%) at day 14 (40° C.) (solvent 25% ethanol, pH 4.0, day 14, 40° C.): 15.2 ± 0.3%
Purity (%) at day 14 (60° C.) (solvent 25% ethanol, pH 4.0, day 14, 60° C.): 0%
Purity(%) at day 0 (solvent 25% ethanol, pH 4.3, day 0): 99.7 ± 0.2%
Purity(%) at day 14 (5° C.) (solvent 25% ethanol, pH 4.3, day 14, 5° C.): 99.1 ± 0.2%
Purity(%) at day 14 (25° C.) (solvent 25% ethanol, pH 4.3, day 14, 25° C.): 96.8 ± 0.2%
Purity(%) at day 14 (40° C.) (solvent 25% ethanol, pH 4.3, day 14, 40° C.): 13.8 ± 0.3%
Purity (%) at day 14 (60° C.) (solvent 25% ethanol, pH 4.3, day 14, 60° C.): 0%
Purity(%) at day 0 (solvent 25% ethanol, pH 4.6, day 0): 99.7 ± 0.2%
Purity(%) at day 14 (25° C.) (solvent 25% ethanol, pH 4.6, day 14, 25° C.): 96.5 ± 0.2%
Purity(%) at day 14 (40° C.) (solvent 25% ethanol, pH 4.6, day 14, 40° C.): 4.2 ± 0.1%
Purity (%) at day 14 (60° C.) (solvent 25% ethanol, pH 4.6, day 14, 60° C.): 0%
Purity(%) at day 0 (solvent 25% ethanol, pH 5.0, day 0): 99.6 ± 0.2%
Purity(%) at day 14 (25° C.) (solvent 25% ethanol, pH 5.0, day 14, 25° C.): 92.8 ± 0.2%
Purity(%) at day 14 (40° C.) (solvent 25% ethanol, pH 5.0, day 14, 40° C.): 1.6 ± 0.1%
Purity (%) at day 14 (60° C.) (solvent 25% ethanol, pH 5.0, day 14, 60° C.): 0%
Purity(%) at day 0 (solvent 25% ethanol, pH 6.0, day 0): 99.5 ± 0.3%
Purity(%) at day 14 (5° C.) (solvent 25% ethanol, pH 6.0, day 14, 5° C.): 92.7 ± 0.2%
Purity(%) at day 14 (25° C.) (solvent 25% ethanol, pH 6.0, day 14, 25° C.): 85.0 ± 0.3%
Purity(%) at day 14 (40° C.) (solvent 25% ethanol, pH 6.0, day 14, 40° C.): 0%
Purity (%) at day 14 (60° C.) (solvent 25% ethanol, pH 6.0, day 14, 60° C.): 0%
Purity(%) at day 0 (solvent 25% ethanol, pH 7.0, day 0): 99.4 ± 0.3%
Purity(%) at day 14 (5° C.) (solvent 25% ethanol, pH 7.0, day 14, 5° C.): 88.0 ± 0.3%
Purity(%) at day 14 (25° C.) (solvent 25% ethanol, pH 7.0, day 14, 25° C.): 61.2 ± 0.3%
Purity(%) at day 14 (40° C.) (solvent 25% ethanol, pH 7.0, day 14, 40° C.): 0%
Purity (%) at day 14 (60° C.) (solvent 25% ethanol, pH 7.0, day 14, 60° C.): 0%
Purity(%) at day 0 (solvent 25% ethanol, pH 8.0, day 0): 99.1 ± 0.3%
Purity(%) at day 14 (5° C.) (solvent 25% ethanol, pH 8.0, day 14, 5° C.): 59.8 ± 0.3%
Purity(%) at day 14 (25° C.) (solvent 25% ethanol, pH 8.0, day 14, 25° C.): 23.1 ± 0.3%
Purity(%) at day 14 (40° C.) (solvent 25% ethanol, pH 8.0, day 14, 40° C.): 0%

— US20230157952A1, “METHOD FOR IMPROVING THE STABILITY OF A PHARMACEUTICAL COMPOSITION COMPRISING A HIGH PENETRATION DRUG, AND THE PHARMACEUTICAL COMPOSITION OBTAINED THEREFROM” (Techfields Inc., priority 2020, published 2023)
